Patent publication US10028508B2, “Use of active compound compositions” (BAYER CROPSCIENCE AKTIENGESELLSCHAFT, priority 2014, dated 2018)
Like-named read-outs stand apart in the source and are kept apart here.

Tested on: Anopheles funestus metabolic-resistant strain FUMOZ-R
Test: Metabolic-Resistant Anopheles Test (mortality on treated tile, wood, concrete)
Assay type: in vivo
Details: for mortality at 100 mg/m2: Clothianidin 100 mg/m2, read-out: Mortality Effect %; for mortality at 200 mg/m2: Clothianidin 200 mg/m2, read-out: Mortality Effect %
Procedure: To produce a suitable preparation of active compound combination the active compounds deltamethrin and clothanidin were dissolved in acetone (for the control group only one active compound was dissolved in acetone). The active compound combination preparation (and the active compound preparations) were pipetted onto a glazed tile, wood and concrete and, after drying, adult mosquitoes of the species Anopheles funestus metabolic-resistant strain FUMOZ-R (Hunt et al., Med Vet Entomol. 2005 September; 19(3):271-5) are placed onto the treated tile, wood and concrete. The exposition time is 30 minutes.
1 hour, 2 hour, 4 hour, 24 hours after contact to the treated surface, the mortality proportion of the test animals in % is determined. Here, 100% means that all mosquitoes have been killed; 0% means that none of the mosquitoes has been killed. The treated tile, wood and concrete was stored under stress conditions (30° C./80% rh). Measurement with the treated tile, wood and concrete was repeated 5 weeks (Table 1), 11 weeks (Table 2) and 60 weeks (Table 3) after the treatment with the active compound combination.

[1] = 5 weeks after treatment, Concrete, 1 h after contact
[2] = 5 weeks after treatment, Concrete, 2 h after contact
[3] = 5 weeks after treatment, Concrete, 4 h after contact
[4] = 5 weeks after treatment, Concrete, 24 h after contact
[5] = 5 weeks after treatment, Tile, 1 h after contact
[6] = 5 weeks after treatment, Tile, 2 h after contact
[7] = 5 weeks after treatment, Tile, 4 h after contact
[8] = 5 weeks after treatment, Tile, 24 h after contact
[9] = 5 weeks after treatment, Wood, 1 h after contact
[10] = 5 weeks after treatment, Wood, 2 h after contact
[11] = 5 weeks after treatment, Wood, 4 h after contact
[12] = 5 weeks after treatment, Wood, 24 h after contact
[13] = 11 weeks after treatment, Concrete, 1 h after contact
[14] = 11 weeks after treatment, Concrete, 2 h after contact
[15] = 11 weeks after treatment, Concrete, 4 h after contact
[16] = 11 weeks after treatment, Concrete, 24 h after contact
[17] = 11 weeks after treatment, Tile, 1 h after contact
[18] = 11 weeks after treatment, Tile, 2 h after contact
[19] = 11 weeks after treatment, Tile, 4 h after contact
[20] = 11 weeks after treatment, Tile, 24 h after contact
[21] = 11 weeks after treatment, Wood, 1 h after contact
[22] = 11 weeks after treatment, Wood, 2 h after contact
[23] = 11 weeks after treatment, Wood, 4 h after contact
[24] = 11 weeks after treatment, Wood, 24 h after contact
[25] = 60 weeks after treatment, Concrete, 1 h after contact
[26] = 60 weeks after treatment, Concrete, 2 h after contact
[27] = 60 weeks after treatment, Concrete, 4 h after contact
[28] = 60 weeks after treatment, Concrete, 24 h after contact
[29] = 60 weeks after treatment, Tile, 1 h after contact
[30] = 60 weeks after treatment, Tile, 2 h after contact
[31] = 60 weeks after treatment, Tile, 4 h after contact
[32] = 60 weeks after treatment, Tile, 24 h after contact
[33] = 60 weeks after treatment, Wood, 1 h after contact
[34] = 60 weeks after treatment, Wood, 2 h after contact
[35] = 60 weeks after treatment, Wood, 4 h after contact
[36] = 60 weeks after treatment, Wood, 24 h after contact

CN/C(=N\[N+](=O)[O-])NCc1cnc(Cl)s1 [Clothianidin, clothianidin]
mortality at 100 mg/m2 [1]: 15%
mortality at 200 mg/m2 [1]: 3%
mortality at 100 mg/m2 [2]: 10%
mortality at 200 mg/m2 [2]: 17%
mortality at 100 mg/m2 [3]: 30%
mortality at 200 mg/m2 [3]: 30%
mortality at 100 mg/m2 [4]: 93%
mortality at 200 mg/m2 [4]: 83%
mortality at 100 mg/m2 [5]: 0%
mortality at 200 mg/m2 [5]: 0%
mortality at 100 mg/m2 [6]: 7%
mortality at 200 mg/m2 [6]: 0%
mortality at 100 mg/m2 [7]: 7%
mortality at 200 mg/m2 [7]: 10%
mortality at 100 mg/m2 [8]: 80%
mortality at 200 mg/m2 [8]: 90%
mortality at 100 mg/m2 [9]: 7%
mortality at 200 mg/m2 [9]: 7%
mortality at 100 mg/m2 [10]: 20%
mortality at 200 mg/m2 [10]: 10%
mortality at 100 mg/m2 [11]: 27%
mortality at 200 mg/m2 [11]: 20%
mortality at 100 mg/m2 [12]: 93%
mortality at 200 mg/m2 [12]: 93%
mortality at 100 mg/m2 [13]: 23%
mortality at 200 mg/m2 [13]: 3%
mortality at 100 mg/m2 [14]: 67%
mortality at 200 mg/m2 [14]: 17%
mortality at 100 mg/m2 [15]: 73%
mortality at 200 mg/m2 [15]: 47%
mortality at 100 mg/m2 [16]: 93%
mortality at 200 mg/m2 [16]: 83%
mortality at 100 mg/m2 [17]: 7%
mortality at 200 mg/m2 [17]: 7%
mortality at 100 mg/m2 [18]: 10%
mortality at 200 mg/m2 [18]: 20%
mortality at 100 mg/m2 [19]: 13%
mortality at 200 mg/m2 [19]: 43%
mortality at 100 mg/m2 [20]: 37%
mortality at 200 mg/m2 [20]: 73%
mortality at 100 mg/m2 [21]: 0%
mortality at 200 mg/m2 [21]: 13%
mortality at 100 mg/m2 [22]: 3%
mortality at 200 mg/m2 [22]: 17%
mortality at 100 mg/m2 [23]: 33%
mortality at 200 mg/m2 [23]: 17%
mortality at 100 mg/m2 [24]: 27%
mortality at 200 mg/m2 [24]: 40%
mortality at 100 mg/m2 [25]: 0%
mortality at 200 mg/m2 [25]: 0%
mortality at 100 mg/m2 [26]: 3%
mortality at 200 mg/m2 [26]: 7%
mortality at 100 mg/m2 [27]: 20%
mortality at 200 mg/m2 [27]: 17%
mortality at 100 mg/m2 [28]: 37%
mortality at 200 mg/m2 [28]: 63%
mortality at 100 mg/m2 [29]: 0%
mortality at 200 mg/m2 [29]: 0%
mortality at 100 mg/m2 [30]: 0%
mortality at 200 mg/m2 [30]: 3%
mortality at 100 mg/m2 [31]: 0%
mortality at 200 mg/m2 [31]: 7%
mortality at 100 mg/m2 [32]: 17%
mortality at 200 mg/m2 [32]: 43%
mortality at 100 mg/m2 [33]: 0%
mortality at 200 mg/m2 [33]: 0%
mortality at 100 mg/m2 [34]: 0%
mortality at 200 mg/m2 [34]: 3%
mortality at 100 mg/m2 [35]: 0%
mortality at 200 mg/m2 [35]: 3%
mortality at 100 mg/m2 [36]: 10%
mortality at 200 mg/m2 [36]: 17%
